The text below walks through data of patent US10851069B2, “Compositions of crystallized hydrophobic compounds and methods of making and using same” (Massachusetts Institute of Technology, priority 2016, dated 2020).

The nature of series [1]: In vitro drug release from alginate capsules loaded with crystalline or amorphous formulations. The series is classed as physicochemical. As to conditions: accelerated release conditions (+ SDS). The protocol: Release study was carried out in 3 different media, a normal saline-Isopropyl alcohol (10%) mixture, a phosphate buffer (pH 7.4), or for accelerated condition with phosphate buffered saline (pH 7.4) either with 0.1% w/v or 03% w/v SDS. Release study at NS+10% IPA was carried out in 2 ml medium at 37° C. Sampling was carried out by replacement of 1.5 ml of release medium by total replacement of release medium with fresh medium. […] For release in accelerated condition (PBS+SDS), the same time points were followed while 20 μl of drug loaded capsules were incubated in 2 ml release medium to achieve sink conditions. Drug concentration in samples was measured by reverse phase HPLC on C-18 column with a mobile phase or using UV calibrated system. An isocratic mode was set at a flow rate of 0.5-2 ml/min and a different wave-length of nm and 20-50 μl of samples was injected into an HPLC system (Waters, LC-Module-I) or UV analyzed. Calibration curves were prepared in concentration range of 0.05-10 μg/ml. Using prepared calibration curves, drugs concentration in different release samples were calculated.

In a further series the test system is C57BL/6 mice. Kind of series: Anti-fibrotic screening of amorphous drug formulations in 500 μm alginate capsules, 2-week intraperitoneal implantation. The format is in vivo. Conditions: conclusion; alginate hydrogel, ceramic, glass, PDMS and polystyrene beads. The source says:
For screening of anti-fibrotic drug activity, amorphous drug formulations were encapsulated inside 500 μm alginate capsules. Broad-spectrum anti-inflammatory agents curcumin, dexamethasone, and rapamycin have been used for preventing fibrosis of various biomaterials, such as polymer PLGA and hydrogel alginate. A panel of lead drug candidates (e.g., compounds of Formulae I-X) including the traditional broad-spectrum anti-inflammatories as well as agents targeted to essential macrophage biology pathways (e.g., TNFα, NFκB, p110δ/PI3K, TGFβ, and CSF1R) were selected. […] SLG20 alginate hydrogel spheres with these lead drug candidates were prepared as amorphous formulations to investigate the effect of macrophage immunomodulation on foreign body response. Drugs were encapsulated in amorphous form prepared by first dissolving in an organic solvent (e.g., vehicle in FIGS. 7, 9) then by mixing with alginate aqueous solution. Efficacy in preventing fibrosis was assessed in C57BL/6 mice at 2-weeks post implantation into the intraperitoneal (IP) cavity. Drug-containing spheres (500 μl/animal) were then implanted into the intraperitoneal space of C57BL/6 mice for 14 days. After this period, spheres were harvested and studied for cellular deposition and fibrosis.
All animal protocols were approved by the MIT Committee on Animal Care, and all surgical procedures and post-operative care was supervised by MIT Division of Comparative Medicine veterinary staff. Immune-competent male non-diabetic or STZ-induced diabetic C57BL/6 mice (Jackson Laboratory, Bar Harbor, Me.) were anesthetized with 3% isoflurane in oxygen and had their abdomens shaved and sterilized using betadine and isopropanol. Preoperatively, all mice also received a 0.05 mg/kg dose of buprenorphine subcutaneously as a pre-surgical analgesic, along with 0.3 mL of 0.9% saline subcutaneously to prevent dehydration. A […] incision was made along the midline of the abdomen and the peritoneal lining was exposed using blunt dissection. […]

A further series relates to rat Pdx1. As to the kind of experiment: qPCR of explanted capsules, rat islet function/viability marker. The format is in vivo. Conditions: explanted at approximately 430 (amorphous) or 460 (crystalline) days post-transplant. An excerpt: Total RNA was isolated from fibrosed spheres (with adhered tissue and immune overgrowth, if present), liquid nitrogen snap-frozen immediately following excision, using TRIzol (Invitrogen, Carlsbad, Calif.) according to the manufacturer's instructions. In addition, to help ensure complete tissue disruption, we also employed strong mechanical disruption with a Polytron homogenizer. Thus, gene expression signatures shown throughout are proportional and representative of the entire cell population present on and/or around retrieved materials. […] Mouse (5′-[…]-3′ (SEQ. ID. No.:1); reverse: 5′-CGGGTTCCGCTGTGTAAG-3′ (SEQ. ID. No.:2)) and rat (5′-CTCTCGTGCCATGTGAACC-3′ (SEQ. ID. No.:3); reverse: 5′-[…]-3′ (SEQ. ID. No.:4)) Pdx1 primers were designed using Primer Express software (Applied Biosystems, Carlsbad, Calif., USA) and evaluated using LaserGene software (DNAStar, Madison, Wis., USA) to ensure species rat (encapsulated islet) or mouse (host)-specificity, and normalized to mouse (5′-[…]-3′ (SEQ. ID. No.:5); reverse: 5′-[…]-3′ (SEQ. ID. No.:6)) and rat (5′-[…]-3′ (SEQ. ID. No.:7); reverse: 5′-[…]-3′ (SEQ. ID. No.:8)) Beta-actin, respectively. […] Results were analyzed using the comparative CT (ΔΔCT) method as described by the manufacturer. […]
In general terms: In qPCR the cycle at which signal appears reflects the starting amount.

Turning to `COc1ccc(COc2ccc(Cc3cnc(N)nc3N)cc2OC)cc1` [GW2580, 5-[[3-Methoxy-4-[(4-methoxyphenyl)methoxy]phenyl]methyl]-2,4-pyrimidinediamine], the drug release profile entry in series [1] (amorphous form in 2000 μm alginate capsules) was “Higher drug release”; in series [1] (pure crystalline formulations in 2000 μm alginate capsules) it was “released the drug more slowly initially, but continued releasing drugs for a much longer period of time”. For the same compound, the “efficacy in inhibiting fibrosis of implanted biomaterial” value with C57BL/6 mice was “demonstrated efficacy in inhibiting fibrosis”. Moreover, in the series on rat Pdx1, the “Pdx1 expression, crystal versus amorphous capsules” value is “approximately 30 fold”.
